Experimental data as given in ChEMBL document CHEMBL5042535, “Structure-Based Design and Synthesis of N-Substituted 3-Amino-β-Carboline Derivatives as Potent αβ-Tubulin Degradation Agents” (J Med Chem, 2022).
pIC50: −log10 of the molar value. Values belong to the compound of their own block, whether it stands above or below them. Activity calls are given as the source filed them. No cut-off for these calls is given here.

Experiments:
[1] = Clearance in rat at 5 mg/kg, iv; assay type: ADME, organism-based; conditions: in vivo
[2] = Half life in rat at 5 mg/kg, iv; assay type: ADME, organism-based; conditions: in vivo
K562 = assay: Induction of Beta tubulin degradation in human K562 cells at upto 10 uM for 16 hrs by immunoblot analysis; assay type: cell-based; conditions: dose microM <=10, time 16.0 hrs
HUVEC [3] = assay: Antimigratory activity against human HUVEC cells assessed as reduction in cell migration at upto 10 nM incubated for 48 hrs by wound healing assay; assay type: functional; parameters: scale not given: the % may be the effect or the level left; conditions: dose nM <=10
A2780S [4] = assay: Induction of apoptosis in PTX sensitive human A2780S cells at 100 to 300 nM incubated for 48 hrs by Annexin V-FITC/PI staining based flow cytometry method; assay type: functional, cell-based; conditions: dose 100-300 nM
A549 = assay: Cytotoxicity in human A549 assessed as inhibition in cell growth measured after 24 hrs by MTT assay; assay type: functional, cell-based; conditions: A549, 24 h
[5] = Drug resistance index, ratio of IC50 for human A549 cancer cell to ratio of IC50 for human A549T cancer cell; assay type: functional
[6] = Toxicity in mouse xenografted with human A2780S cells assessed as body weight loss at 40 mg/kg, iv; assay type: organism-based; conditions: in vivo
HeLa [7] = assay: Induction of Alpha/beta tubulin degradation in human HeLa cells pretreated with colchicine at 10 uM for 1 hrs followed by compound addition measured after 16 hrs by Western blot analysis; assay type: cell-based
HUVEC [8] = assay: Antimigratory activity against human HUVEC cells assessed as reduction in metastasis at upto 5 nM incubated for 24 hrs by wound healing assay; assay type: functional, cell-based; conditions: dose nM <=5, time 24.0 hrs
A2780/Taxol [9] = assay: Induction of cell cycle arrest in human A2780T cells assessed as accumulation at G2/M phase at 300 nM measured after 48 hrs by flow cytometry analysis relative to control; assay type: functional
HUVEC [10] = assay: Antimigratory activity against human HUVEC cells assessed as reduction in tumor cell migration at upto 5 nM incubated for 24 hrs by wound healing assay relative to control; assay type: functional; parameters: scale not given: the % may be the effect or the level left; conditions: dose nM <=5
A2780/Taxol [11] = assay: Induction of cell cycle arrest in human A2780T cells assessed as accumulation at G2/M phase at 100 nM measured after 48 hrs by flow cytometry analysis relative to control; assay type: functional
A2780S [12] = assay: Induction of cell cycle arrest in human A2780S cells assessed as accumulation at G2/M phase at 300 nM measured after 48 hrs by flow cytometry analysis relative to control; assay type: functional
HeLa [13] = assay: Induction of Beta tubulin degradation in human HeLa cells pretreated with MG132 at 10 uM for 1 hrs followed by compound addition measured after 16 hrs by Western blot analysis; assay type: cell-based
HeLa [14] = assay: Induction of Alpha/beta tubulin degradation in human HeLa cells measured after 16 hrs by immunoblot analysis; assay type: cell-based; conditions: dose 0-50 µM
A2780S [15] = assay: Antiproliferative activity against human A2780S cells assessed as reduction in cell viability measured after 24 hrs by MTT assay; assay type: functional, cell-based
NCI-H460 = assay: Antiproliferative activity against human NCI-H460 cells assessed as reduction in cell viability measured after 24 hrs by MTT assay; assay type: functional, cell-based; conditions: NCI-H460, 24 h
HUVEC [16] = assay: Antimigratory activity against human HUVEC cells assessed as reduction in metastasis at upto 5 nM incubated for 48 hrs by wound healing assay; assay type: functional, cell-based; conditions: dose nM <=5, time 48.0 hrs
Tubulin (Homo sapiens) = Tubulin (Homo sapiens) (UniProt P68371+Q9H4B7+P0DPH7+P68366+Q13509+Q71U36+P04350+Q3ZCM7+P07437+P68363+Q9BQE3+Q6PEY2+Q13885+Q9BVA1+Q9BUF5); assay: Inhibition of tubulin polymerization in human A2780S cells assessed as microtubule network polymerization at 10 to 1000 nM after 24 hrs by immunofluorescence analysis; assay type: cell-based; conditions: dose 10-1000 nM
NCI/ADR-RES = assay: Cytotoxicity in human NCI-ADR-RES assessed as inhibition in cell growth measured after 24 hrs by MTT assay; assay type: functional, cell-based
[17] = Toxicity in mouse xenografted with human A2780S cells assessed as body weight loss at 40 mg/kg, po; assay type: organism-based; conditions: in vivo
HeLa [18] = assay: Induction of Beta tubulin degradation in human HeLa cells at upto 10 uM for 16 hrs by immunoblot analysis; assay type: cell-based; conditions: dose microM <=10, time 16.0 hrs
A2780S [19] = assay: Antitumor activity against mouse xenografted with human A2780S cell assessed as tumor growth inhibition at 40 mg/kg, po; assay type: functional; conditions: read-out: TGI
HeLa [20] = assay: Induction of Alpha/beta tubulin degradation in human HeLa cells pretreated with colchicine at 10 uM for 1 hrs by Western blot analysis; assay type: cell-based
HUVEC [21] = assay: Antimigratory activity against human HUVEC cells assessed as reduction in cell migration at upto 5 nM incubated for 48 hrs by wound healing assay relative to control; assay type: functional; parameters: scale not given: the % may be the effect or the level left; conditions: dose nM <=5
A2780S [22] = assay: Induction of apoptosis in human A2780S cells assessed as late apoptotic cells level at 100 nM incubated for 48 hrs by Annexin V-FITC/PI staining based flow cytometry (reference value: 5.2%); assay type: functional
HeLa [23] = assay: Antiproliferative activity against human HeLa cells assessed as reduction in cell viability measured after 24 hrs by MTT assay; assay type: functional, cell-based
A2780S [24] = assay: Antitumor activity against human A2780S cells xenografted in mouse assessed as tumor growth inhibition at 20 mg/kg, iv measured on three times in week; assay type: functional; conditions: read-out: TGI
A2780S [25] = assay: Cytotoxicity in human A2780S assessed as inhibition in cell growth measured after 24 hrs by MTT assay; assay type: functional, cell-based
MCF7 [26] = assay: Antiproliferative activity against human MCF7 cells assessed as reduction in cell viability measured after 24 hrs by MTT assay; assay type: functional, cell-based; conditions: MCF7, 24 h
[27] = Half life in rat at 5 mg/kg, po; assay type: ADME, organism-based; conditions: in vivo
MCF7 [28] = assay: Cytotoxicity in human MCF7 assessed as inhibition in cell growth measured after 24 hrs by MTT assay; assay type: functional, cell-based; conditions: MCF7, 24 h
A2780/Taxol [29] = assay: Cytotoxicity in human A2780T assessed as inhibition in cell growth measured after 24 hrs by MTT assay; assay type: functional, cell-based
[30] = Drug resistance index, ratio of IC50 for human A2780S cancer cell to ratio of IC50 for human A2780T cancer cell; assay type: functional
[31] = Volume of distribution at steady state in rat at 5 mg/kg, po; assay type: ADME, organism-based; conditions: in vivo
HeLa [32] = assay: Induction of Alpha/beta tubulin degradation in human HeLa cells pretreated with PYR-41 at 10 uM for 1 hrs followed by compound addition measured after 16 hrs by Western blot analysis; assay type: cell-based
Raji = assay: Antiproliferative activity against human Raji cells assessed as reduction in cell viability measured after 24 hrs by MTT assay; assay type: functional, cell-based
A2780S [33] = assay: Antitumor activity against human A2780S cells xenografted in mouse assessed as tumor growth inhibition at 10 mg/kg, iv measured on three times in week; assay type: functional; conditions: read-out: TGI
HUVEC [34] = assay: Antimigratory activity against human HUVEC cells assessed as reduction in cell migration at upto 10 nM incubated for 24 hrs by wound healing assay; assay type: functional; parameters: scale not given: the % may be the effect or the level left; conditions: dose nM <=10
A2780S [35] = assay: Induction of cell cycle arrest in human A2780S cells assessed as accumulation at G2/M phase at 100 nM measured after 48 hrs by flow cytometry analysis relative to control; assay type: functional
A2780S [36] = assay: Antitumor activity against human A2780S cells xenografted in mouse assessed as tumor growth inhibition at 40 mg/kg, iv; assay type: functional; conditions: read-out: TGI
[37] = Oral bioavailability in rat at 5 mg/kg; assay type: ADME, organism-based; conditions: in vivo
[38] = Cmax in rat at 5 mg/kg, po; assay type: ADME, organism-based; parameters: route oral, dose 5 mg/kg; conditions: in vivo
A2780/Taxol [39] = assay: Induction of apoptosis in PTX resistant human A2780T cells at 100 to 300 nM incubated for 48 hrs by Annexin V-FITC/PI staining based flow cytometry method; assay type: functional, cell-based; conditions: dose 100-300 nM
[40] = Clearance in rat at 5 mg/kg, po; assay type: ADME, organism-based; conditions: in vivo
[41] = Drug resistance index, ratio of IC50 for human MCF7 cancer cell to ratio of IC50 for human NCI-ADR-RES cancer cell; assay type: functional
A2780S [42] = assay: Induction of apoptosis in human A2780S cells assessed as late apoptotic cells level at 30 nM incubated for 48 hrs by Annexin V-FITC/PI staining based flow cytometry (reference value: 5.2%); assay type: functional
[43] = Volume of distribution at steady state in rat at 5 mg/kg, iv; assay type: ADME, organism-based; conditions: in vivo, read-out: Vdss
A549/TR = assay: Cytotoxicity in human A549T assessed as inhibition in cell growth measured after 24 hrs by MTT assay; assay type: functional, cell-based
A2780S [44] = assay: Induction of apoptosis in human A2780S cells assessed as late apoptotic cells level at 300 nM incubated for 48 hrs by Annexin V-FITC/PI staining based flow cytometry (reference value: 5.2%); assay type: functional
[45] = Cmax in rat plasma at 5 mg/kg, iv; assay type: ADME, organism-based; parameters: route intravenous, dose 5 mg/kg

clearance [1]: 25.3 mL/min/kg
half-life [2]: 3.57 h
pIC50 (A2780S [15]): 8.10
pIC50 (NCI-H460): 7.85
Activity (Tubulin (Homo sapiens)): inactive
pIC50 (HeLa [23]): 8.30
pIC50 (MCF7 [26]): 8.05
half-life [27]: 4.42 h
Vdss [31]: 35.26 L/kg
pIC50 (Raji): 7.89
bioavailability [37]: 30.7%
Cmax [38]: 2600 ng/mL
CL/F [40]: 84.3 mL/min/kg
Vd [43]: 8.08 L/kg
Cmax [45]: 189 ng/mL
Compound: c1cc(CNc2cc3c(cn2)[nH]c2ccccc23)cc(Oc2ccc3c(c2)OCO3)c1
Activity (K562): Active
Activity (HUVEC [3]): 28.47%
Activity (A2780S [4]): Active
pIC50 (A549): 7.22
Ratio IC50 [5]: 1.1
Activity [6]: Non-Toxic
Activity (HeLa [7]): Active
Activity (HUVEC [8]): Active
Activity (A2780/Taxol [9]): 72.89%
Activity (HUVEC [10]): 76.21%
Activity (A2780/Taxol [11]): 72.18%
Activity (A2780S [12]): 79.54%
Activity (HeLa [13]): Active
Activity (HeLa [14]): Active
Activity (HUVEC [16]): Active
pIC50 (NCI/ADR-RES): 7.87
Activity [17]: Toxic
Activity (HeLa [18]): Active
inhibition in vivo at 40 mg/kg (A2780S [19]): 34.9%
Activity (HeLa [20]): Active
Activity (HUVEC [21]): 85.07%
Activity (A2780S [22]): 25.2%
inhibition in vivo at 20 mg/kg (A2780S [24]): 71.5%
pIC50 (A2780S [25]): 7.79
pIC50 (MCF7 [28]): 7.95
pIC50 (A2780/Taxol [29]): 7.88
Ratio IC50 [30]: 0.8
Activity (HeLa [32]): Active
inhibition in vivo at 10 mg/kg (A2780S [33]): 66.1%
Activity (HUVEC [34]): 20.8%
Activity (A2780S [35]): 55.1%
inhibition in vivo at 40 mg/kg (A2780S [36]): 92.4%
Activity (A2780/Taxol [39]): Active
Ratio IC50 [41]: 1.2
Activity (A2780S [42]): 3.7%
pIC50 (A549/TR): 7.20
Activity (A2780S [44]): 30.6%

pIC50 (A2780S [15]): 6.64
pIC50 (NCI-H460): 6.48
pIC50 (HeLa [23]): 6.68
pIC50 (MCF7 [26]): 6.82
pIC50 (Raji): 6.48
Compound: c1cncc(Oc2cccc(CNc3cc4c(cn3)[nH]c3ccccc34)c2)c1
